Results from patent publication US10240124B2, “Cell culture substrate comprising a laminin and a cadherin” (BioLamina AB, priority 2011, dated 2019).

Experiments:
[1] = system: hES cells on LN-521; test: Inhibition of survival assay on LN-521; format: cell-based, human; details: medium contained bFGF, FIG. 16
From the text: InSolution™ LY 294002 (a specific Akt inhibitor), InSolution™ Wortmannin (a specific PI3K inhibitor), and InSolution™ 98059 (a specific MEK1/Erk inhibitor) were purchased from Calbiochem. Antibodies to phospho-Akt (#4060), total-Akt (#9272), phospho-Erk (#9101), and total-Erk (#9102) were obtained from Cell Signaling Technology. PathScan Phospho-Akt1 sandwich ELISA kit (#7160), PathScan total Akt1 sandwich ELISA kit (#7170), PathScan Phospho-Akt2 sandwich ELISA kit (#7048), and PathScan total Akt2 sandwich ELISA kit (#7046) were also purchased from Cell Signaling Technology. Antibodies to Calnexin (#ab10286) were obtained from Abcam. Function blocking antibodies to various integrin subunits, mouse isotype antibodies, and α-dystroglycan were purchased from Millipore. Since function blocking antibodies to αV (MAB1980) and α6 (MAB1378) were presented in a solution with sodium azide, before the inhibition of survival experiment all the antibodies to alpha integrin subunits were dialyzed thrice against O3 medium for 2 hours each time. Antibodies to Lutheran receptor and α-fetoprotein, as well as rat isotype control antibodies were obtained from R&D Systems. Antibodies to Oct4, Nanog, SSEA-4, smooth muscle actin and MAP-2 were purchased from Millipore. […]

[2] = system: human ES cells (HS181); test: Cell adhesion assay, Crystal Violet (Example 1); format: cell-based; details: for cells remaining attached / surviving 24 hours after plating: HS181 completely dissociated, FIG. 4
Experimental: Ninety-six-well tissue cell culture plates were coated overnight at 4° C. with sterile solutions of the ECM proteins mouse LN-111 (Invitrogen), human recombinant LN-511, and human recombinant LN-521, all at a concentration of 30 μg/ml (5 μg/cm^2). For control cells, BD Matrigel™ hESC qualified (BD Biosciences) was used according to the manufacturer's instructions.
The assay was performed as described (Extracellular Matrix Protocols, 2000). Briefly, 96-well plates were coated by extracellular matrix proteins as described above and blocked by O3 medium containing bovine serum albumin. The ES cells were plated at a cell density of 600 cell/mm^2 upon extracellular matrix-coated plates and were left to adhere for either 1 hour or 1 day at the cell incubator. Non-adherent cells were washed away, and adherent cells were fixed for 20 min by 5% glutaraldehyde, stained by 0.1% Crystal Violet.

[3] = system: hES cells; test: Cell survival assay, 24 hours (Example 2); format: cell-based, human; details: for survival of hES cells 24 hours after plating from single cell suspension: O3 medium, absence of ROCK inhibitor; for survival of dissociated hES cells after 24 hours: quantified survival assay
Experimental: (§1) Briefly, 96-well plates were coated by extracellular matrix proteins as described above and blocked by O3 medium containing bovine serum albumin. The ES cells were plated at cell density of 50,000 cells/cm^2 onto extracellular matrix-coated plates and left to adhere for 1 hour in a cell incubator. After that the plates were washed 3 times with the medium to remove the non-adherent cells, and then the adherent cells were fixed for 20 minutes by 5% glutaraldehyde, stained by 0.1% Crystal Violet. (Kebo Lab, Spanga, Sweden, http://www.kebolab.se). After one hour and 3 washes with water, Crystal Violet was extracted with 10% acetic acid and quantified by measuring optical density at 570 nm. All the experiments were performed in quadruplicate.
The survival assay was performed as described for the cell adhesion assay above, except that the cells were left in the cell incubator for 24 hours. For inhibition of survival assay, the cells were kept in a medium with function blocking antibodies at the concentrations recommended by the manufacturer or pathway inhibitors at concentrations indicated in the text for 30 minutes, and then plated on the coated dishes. All the experiments were performed in quadruplicate.
Pluripotent hES cells express α1, α5, β1, β2 and γ1 laminin chains. To compare the adhesion and clonal survival of hES cells plated from single cell suspension to different coating substrata, hES cells growing as monolayers on LN-511 or as clusters on a feeder layer were trypsinized into single cell suspension in O3 medium and plated on cell culture dishes coated with Matrigel, LN-111, LN-511, LN-521 or a mixture of LN-511 and LN-521, in the absence or presence of a ROCK inhibitor (Y-27632) and analyzed after 24 hours.

[4] = system: human embryonic stem cells; test: Survival of hES cells plated in single cell suspension on precoated dishes (description); format: cell-based; details: O3 medium, 30 Kcells/cm^2
From the text: In other aspects, the present disclosure provides a new material, isolated laminin-521, which permits human embryonic stem cell survival after dissociation into single cell suspension. The stem cells were dissociated into single cell suspension by Trypsin-EDTA treatment, pelleted by centrifugation, resuspended into O3 medium, filtered through a 40 μm sieve, and plated at a density of 30 Kcells/cm^2 on cell culture dishes precoated by either isolated laminin-521, laminin-511, or Matrigel. After one day in culture, the cells plated on Matrigel died, as is known in the art.

[5] = system: hES cells; test: Cell adhesion assay, 1 hour (Example 2); format: cell-based, human; details: compared with Matrigel or LN-111, not shown
Experimental: Tissue cell culture plates were coated overnight at 4° C. with sterile solutions of the ECM proteins, such as human recombinant LN-521, all at a concentration of 30 μg/ml (5 μg/cm^2). Control plates were coated with Matrigel according to the STEMCELL Technologies' instructions. Prior to use, dishes were pre-warmed in an incubator for one hour after which prewarmed O3 medium was added without additional washing of the dish. After applying a fresh LN-521 solution to a new dish, the remaining LN-521 solution could be used at least once more. All the adhesion, survival, and inhibition of survival experiments were carried out using fresh coating materials.
as §1

[6] = system: myosin light chain (MLC); test: Western blot of phosphorylated myosin light chain; format: cell-based, human; details: one and six hours after plating, FIG. 12 and 13
Experimental: HS 181 cells were trypsinized into single cell suspension as described above. For inhibition experiments, the cells were kept in O3 medium with blocking antibodies or pathway inhibitors for 30 minutes and then 450K cells were plated on 35 mm dishes precoated with the appropriate matrix coating. For other experiments, same number of cells was plated directly after trypsinization. […] After two washings in ice-cold PBS, the plates with cells were snap frozen in liquid nitrogen and stored at −80° C. To prepare samples for western blots and ELISA, the plates were slowly thawed and kept on ice with 100-150 μl of lysis buffer (50 mM Tris-HCl, pH7.5, 150 mM NaCl, 0.5% deoxycholate, 0.5% SDS, 1% Triton X-100, 1% Igepal, Complete™ (Roche) and Phospho-Stop™ (Roche)) on top. Then, the cells were scraped, pipetted and sheared through a 27 G ¾″ needle. After that, the cell pellets were clarified by centrifugation at 16,100 rcf for 15 minutes at 4° C. For western blots, 4-12% gradient gels were used for SDS electrophoresis and the proteins were transferred to PVDF membranes. The membrane was hybridized with the antibody of interest according to the manufacturer's instructions. […] For the densitometry analysis the films were scanned at 2,400 dpi and analyzed by the Chemilmager5500 program (1 D-Multi Line densitometry mode). […]

[7] = target: Integrin α6β1 (Homo sapiens, UniProt P05556+P23229); details: cited from earlier work
[8] = system: Human ES cells; details: over 3 months; engraftment into SCID mice; cited from earlier work
[9] = system: hES cells; test: Clonal survival of individualized hES cells, alkaline phosphatase staining (Example 4); format: cell-based, human
Experimental: hES cells were plated in mTeSR1 medium on different coatings at a density of 250 cells per cm^2 and monitored after 5 days in culture using an alkaline phosphatase staining kit.
Next, combinations of laminin-521 and E-Cadherin were tested to determine whether the combinations could sustain clonal survival of the cells. Fixed amounts of laminin-521 were used for the cell culture dish coating in combination with titrated E-Cadherin.
Additional tests were performed to test the effects of various modifications to the mTeSR1 medium. A mixture of E-Cadherin to laminin-521 in a ratio of about 1:10 w/w was used to coat the plates. […] Time-lapse photography of the cells confirmed that laminin-521/E-Cadherin coatings facilitated cell survival through proliferation of the single cells, not through the aggregation of different cells.

[10] = O3 medium without any additives

Integrin α6β1, sequence (P23229 24-1130): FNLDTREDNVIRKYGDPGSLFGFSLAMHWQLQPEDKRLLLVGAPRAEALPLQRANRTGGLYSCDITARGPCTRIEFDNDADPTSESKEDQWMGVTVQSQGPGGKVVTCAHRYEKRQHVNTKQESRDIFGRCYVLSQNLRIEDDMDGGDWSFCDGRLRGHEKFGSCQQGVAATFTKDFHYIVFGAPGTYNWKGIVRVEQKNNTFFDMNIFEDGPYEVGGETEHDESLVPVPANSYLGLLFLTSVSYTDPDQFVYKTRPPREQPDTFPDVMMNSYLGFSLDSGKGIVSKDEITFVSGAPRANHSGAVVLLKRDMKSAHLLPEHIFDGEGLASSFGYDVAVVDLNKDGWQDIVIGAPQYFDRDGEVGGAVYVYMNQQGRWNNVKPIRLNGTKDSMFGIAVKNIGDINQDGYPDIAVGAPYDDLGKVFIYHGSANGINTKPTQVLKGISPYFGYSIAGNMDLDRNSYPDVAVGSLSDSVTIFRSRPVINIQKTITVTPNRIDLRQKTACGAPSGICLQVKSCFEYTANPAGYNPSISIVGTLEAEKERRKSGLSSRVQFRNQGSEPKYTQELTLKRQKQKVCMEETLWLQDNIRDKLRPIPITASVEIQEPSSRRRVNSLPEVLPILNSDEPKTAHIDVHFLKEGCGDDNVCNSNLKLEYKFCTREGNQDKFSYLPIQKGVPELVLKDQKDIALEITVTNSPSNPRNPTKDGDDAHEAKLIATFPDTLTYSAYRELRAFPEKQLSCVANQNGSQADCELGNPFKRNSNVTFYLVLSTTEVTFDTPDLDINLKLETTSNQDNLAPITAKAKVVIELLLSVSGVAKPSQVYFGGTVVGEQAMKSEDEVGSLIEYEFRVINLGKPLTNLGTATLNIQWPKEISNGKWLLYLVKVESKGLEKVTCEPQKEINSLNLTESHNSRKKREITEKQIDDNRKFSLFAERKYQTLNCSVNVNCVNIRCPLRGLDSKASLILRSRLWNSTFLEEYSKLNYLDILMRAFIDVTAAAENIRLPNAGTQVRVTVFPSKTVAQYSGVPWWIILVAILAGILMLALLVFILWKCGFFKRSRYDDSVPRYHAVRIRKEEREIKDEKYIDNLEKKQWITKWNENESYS
Integrin α6β1, sequence (P05556 21-798): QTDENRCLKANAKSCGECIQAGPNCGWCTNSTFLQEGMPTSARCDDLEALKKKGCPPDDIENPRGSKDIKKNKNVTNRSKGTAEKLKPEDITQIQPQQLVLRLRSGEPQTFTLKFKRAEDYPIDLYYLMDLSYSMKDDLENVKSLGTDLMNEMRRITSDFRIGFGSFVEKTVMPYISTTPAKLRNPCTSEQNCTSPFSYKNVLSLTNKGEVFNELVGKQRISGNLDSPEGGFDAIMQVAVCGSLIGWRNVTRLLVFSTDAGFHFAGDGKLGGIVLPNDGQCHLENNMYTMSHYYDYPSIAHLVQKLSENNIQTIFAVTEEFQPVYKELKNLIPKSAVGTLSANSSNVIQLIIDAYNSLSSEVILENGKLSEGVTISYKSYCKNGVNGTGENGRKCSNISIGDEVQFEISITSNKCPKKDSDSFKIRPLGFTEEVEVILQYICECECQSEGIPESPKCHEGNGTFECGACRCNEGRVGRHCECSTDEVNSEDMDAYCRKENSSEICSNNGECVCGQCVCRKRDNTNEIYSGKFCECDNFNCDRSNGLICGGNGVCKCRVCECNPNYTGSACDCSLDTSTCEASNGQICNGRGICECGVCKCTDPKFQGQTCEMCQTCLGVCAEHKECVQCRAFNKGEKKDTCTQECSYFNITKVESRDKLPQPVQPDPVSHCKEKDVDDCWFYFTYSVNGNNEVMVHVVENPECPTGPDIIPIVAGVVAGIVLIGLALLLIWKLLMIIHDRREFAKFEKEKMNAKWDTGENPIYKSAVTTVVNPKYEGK

COc1cccc(-c2cc(=O)c3ccccc3o2)c1N [PD 98059]
hES cell survival 24 hours after plating on LN-521 with pathway inhibitor [1]: did not affect the survival that severely

C[C@@H](N)[C@H]1CC[C@H](C(=O)Nc2ccncc2)CC1 [Y-27632, reference compound]
cells remaining attached after one day with ROCK inhibitor ([2]; O3 medium treated with Y-27632, five coatings, FIG. 5): remained attached on all 5 coatings | survival of hES cells 24 hours after plating in the presence of ROCK inhibitor ([3]; Y-27632, all coatings): survived on all surfaces

LN-111: mouse laminin-111 (Invitrogen), indicated as LN-111 if not otherwise stated
cells remaining attached / surviving 24 hours after plating [2, 10]: almost no cells remained attached | survival of hES cells 24 hours after plating from single cell suspension [3]: did not survive | survival of dissociated hES cells after 24 hours [3]: almost no cells had survived

LN-121: human recombinant laminin of α1, β2 and γ1 chains from triple-transfected HEK293 cells
survival of hES cells 24 hours after plating from single cell suspension [3]: failed to survive

LN-511: human recombinant laminin-511, control coating
survival of human embryonic stem cells after one day in culture [4]: in most cases on laminin-511 survived | cells remaining attached / surviving 24 hours after plating [2, 10]: at a less extent | adhesion of human ES cells at 1 hour ([2]; O3 medium without any additives, without Y-27632, FIG. 6): roughly the same | spreading of the cells after one hour [5]: clearly better | survival of hES cells 24 hours after plating from single cell suspension [3]: did so as single cells | survival of dissociated hES cells after 24 hours [3]: very few | phosphorylation of MLC compared with cells on Matrigel and LN-111 [6]: even higher | binding affinity of integrin α6β1 compared with LN-111 [7]: higher than that for LN-111 | pluripotency of human ES cells in long-term culture [8]: maintain pluripotency and can generate teratomas

albumin: albumin of the mTeSR1 medium, concentration increased 2×
effect of 2× increase in albumin concentration on clonal survival ([9]; laminin-521/E-Cadherin matrix, mTeSR1): significantly improved clonal survival

human recombinant LN-111: human recombinant laminin of α1, β1 and γ1 chains from triple-transfected HEK293 cells
survival of hES cells 24 hours after plating from single cell suspension [3]: failed to survive

B1: E-Cadherin: epithelial-cadherin, most abundant cadherin isoform on the human ES cell surface; coating protein (protein, UniProt P12830 155-882, looked up)
Cadherin-1: DWVIPPISCPENEKGPFPKNLVQIKSNKDKEGKVFYSITGQGADTPPVGVFIIERETGWLKVTEPLDRERIATYTLFSHAVSSNGNAVEDPMEILITVTDQNDNKPEFTQEVFKGSVMEGALPGTSVMEVTATDADDDVNTYNAAIAYTILSQDPELPDKNMFTINRNTGVISVVTTGLDRESFPTYTLVVQAADLQGEGLSTTATAVITVTDTNDNPPIFNPTTYKGQVPENEANVVITTLKVTDADAPNTPAWEAVYTILNDDGGQFVVTTNPVNNDGILKTAKGLDFEAKQQYILHVAVTNVVPFEVSLTTSTATVTVDVLDVNEAPIFVPPEKRVEVSEDFGVGQEITSYTAQEPDTFMEQKITYRIWRDTANWLEINPDTGAISTRAELDREDFEHVKNSTYTALIIATDNGSPVATGTGTLLLILSDVNDNAPIPEPRTIFFCERNPKPQVINIIDADLPPNTSPFTAELTHGASANWTIQYNDPTQESIILKPKMALEVGDYKINLKLMDNQNKDQVTTLEVSVCDCEGAAGVCRKAQPVEAGLQIPAILGILGGILALLILILLLLLFLRRRAVVKEPLLPPEDDTRDNVYYYDEEGGGEEDQDFDLSQLHRGLDARPEVTRNDVAPTLMSVPRYLPRPANPDEIGNFIDENLKAADTDPTAPPYDSLLVFDYEGSGSEAASLSSLNSSESDKDQDYDYLNEWGNRFKKLADMYGGGEDD
clonal survival of individualized hES cells ([9]; mTeSR1, 250 cells per cm^2, 5 days): Neither laminin-521 nor E-Cadherin alone permitted efficient clonal survival
